Where “and” joins values, the source holds several entries; their conditions need not be identical. Equal entries are not always repeated.
Columns and labels:
Format in all cases: cell-based
[1] = tested on: Salmonella typhimurium TA1535; assay: Ames test (reverse mutation test), TA1535
Method: (§1) The solvent used herein was dimethyl sulfoxide (DMSO, 100 µL/plate).
(§2) The mixtures were preincubated at 37° C. for 20 minutes while shaking. […] Two plates per treatment were used.

[2] = tested on: Salmonella typhimurium (TA98, TA1537, TA100, and TA1535) and Escherichia coli (WP2uvrA); assay: Ames test (reverse mutation test), overall conclusion over all tester strains; settings: all bacterial tester strains, with and/or without S9 mix
Method: as §1, §2
Details are explained as follows.

[3] = tested on: Salmonella typhimurium TA1537; assay: Ames test (reverse mutation test), TA1537
Method: as §1, §2

[4] = tested on: Salmonella typhimurium TA100; assay: Ames test (reverse mutation test), TA100
Method: as §1, §2

Escherichia coli WP2uvrA = assay: Ames test (reverse mutation test), WP2uvrA; settings: WP2uvrA
Method: as §1, §2

[5] = tested on: Salmonella typhimurium TA98; assay: Ames test (reverse mutation test), TA98
Method: as §1, §2

## CC(C)(C)Oc1cc(F)cc(-c2cc(N)nn2C(F)(F)F)c1 [Metabolite 1]
[1]; TA1535, +S9 mix, 1667 µg/plate
  Number of revertant colonies: 4
[1]; TA1535, -S9 mix, 62 µg/plate
  Number of revertant colonies: 8
[1]; TA1535, -S9 mix, 185 µg/plate
  Number of revertant colonies: 0
[1]; TA1535, -S9 mix, 556 µg/plate
  Number of revertant colonies: 0
[1]; TA1535, -S9 mix, 1667 µg/plate
  Number of revertant colonies: 0
[2]
  potential to induce reverse mutations: did not show potential to induce reverse mutations
[3]; TA1537, +S9 mix, 2.3 µg/plate
  Number of revertant colonies: 11
[3]; TA1537, +S9 mix, 6.9 µg/plate
  Number of revertant colonies: 10
[3]; TA1537, +S9 mix, 21 µg/plate
  Number of revertant colonies: 9
[3]; TA1537, +S9 mix, 62 µg/plate
  Number of revertant colonies: 6
[3]; TA1537, +S9 mix, 185 µg/plate
  Number of revertant colonies: 2
[3]; TA1537, +S9 mix, 556 µg/plate
  Number of revertant colonies: 0
[3]; TA1537, +S9 mix, 1667 µg/plate
  Number of revertant colonies: 0
[3]; TA1537, +S9 mix, 5000 µg/plate
  Number of revertant colonies: 0
[3]; TA1537, -S9 mix, 2.3 µg/plate
  Number of revertant colonies: 7
[3]; TA1537, -S9 mix, 6.9 µg/plate
  Number of revertant colonies: 10
[3]; TA1537, -S9 mix, 21 µg/plate
  Number of revertant colonies: 9
[3]; TA1537, -S9 mix, 62 µg/plate
  Number of revertant colonies: 9
[3]; TA1537, -S9 mix, 185 µg/plate
  Number of revertant colonies: 0
[3]; TA1537, -S9 mix, 556 µg/plate
  Number of revertant colonies: 0
[3]; TA1537, -S9 mix, 1667 µg/plate
  Number of revertant colonies: 0
[3]; TA1537, -S9 mix, 5000 µg/plate
  Number of revertant colonies: 0
[4]; TA100, +S9 mix, 2.3 µg/plate
  Number of revertant colonies: 120
[4]; TA100, +S9 mix, 6.9 µg/plate
  Number of revertant colonies: 119
[4]; TA100, +S9 mix, 21 µg/plate
  Number of revertant colonies: 117
[4]; TA100, +S9 mix, 62 µg/plate
  Number of revertant colonies: 104
[4]; TA100, +S9 mix, 185 µg/plate
  Number of revertant colonies: 78
[4]; TA100, +S9 mix, 556 µg/plate
  Number of revertant colonies: 59
[4]; TA100, +S9 mix, 1667 µg/plate
  Number of revertant colonies: 50
[4]; TA100, +S9 mix, 5000 µg/plate
  Number of revertant colonies: 52
[4]; TA100, -S9 mix, 2.3 µg/plate
  Number of revertant colonies: 99
[4]; TA100, -S9 mix, 6.9 µg/plate
  Number of revertant colonies: 113
[4]; TA100, -S9 mix, 21 µg/plate
  Number of revertant colonies: 124
[4]; TA100, -S9 mix, 62 µg/plate
  Number of revertant colonies: 88
[4]; TA100, -S9 mix, 185 µg/plate
  Number of revertant colonies: 38
[4]; TA100, -S9 mix, 556 µg/plate
  Number of revertant colonies: 0
[4]; TA100, -S9 mix, 1667 µg/plate
  Number of revertant colonies: 0
[4]; TA100, -S9 mix, 5000 µg/plate
  Number of revertant colonies: 0
Escherichia coli WP2uvrA; +S9 mix, 2.3 µg/plate
  Number of revertant colonies: 31
Escherichia coli WP2uvrA; +S9 mix, 6.9 µg/plate
  Number of revertant colonies: 31
Escherichia coli WP2uvrA; +S9 mix, 12 µg/plate
  Number of revertant colonies: 28
Escherichia coli WP2uvrA; +S9 mix, 21 µg/plate
  Number of revertant colonies: 32 and 25
Escherichia coli WP2uvrA; +S9 mix, 36 µg/plate
  Number of revertant colonies: 34
Escherichia coli WP2uvrA; +S9 mix, 62 µg/plate
  Number of revertant colonies: 40 and 35
Escherichia coli WP2uvrA; +S9 mix, 185 µg/plate
  Number of revertant colonies: 16 and 9
Escherichia coli WP2uvrA; +S9 mix, 556 µg/plate
  Number of revertant colonies: 18
Escherichia coli WP2uvrA; +S9 mix, 1667 µg/plate
  Number of revertant colonies: 9
Escherichia coli WP2uvrA; +S9 mix, 5000 µg/plate
  Number of revertant colonies: 0
Escherichia coli WP2uvrA; -S9 mix, 2.3 µg/plate
  Number of revertant colonies: 32
Escherichia coli WP2uvrA; -S9 mix, 6.9 µg/plate
  Number of revertant colonies: 27
Escherichia coli WP2uvrA; -S9 mix, 21 µg/plate
  Number of revertant colonies: 31
Escherichia coli WP2uvrA; -S9 mix, 62 µg/plate
  Number of revertant colonies: 24
Escherichia coli WP2uvrA; -S9 mix, 185 µg/plate
  Number of revertant colonies: 15
Escherichia coli WP2uvrA; -S9 mix, 556 µg/plate
  Number of revertant colonies: 8
Escherichia coli WP2uvrA; -S9 mix, 1667 µg/plate
  Number of revertant colonies: 5
Escherichia coli WP2uvrA; -S9 mix, 5000 µg/plate
  Number of revertant colonies: 0
[5]; TA98, +S9 mix, 2.3 µg/plate
  Number of revertant colonies: 35
[5]; TA98, +S9 mix, 6.9 µg/plate
  Number of revertant colonies: 31
[5]; TA98, +S9 mix, 21 µg/plate
  Number of revertant colonies: 35
[5]; TA98, +S9 mix, 62 µg/plate
  Number of revertant colonies: 28
[5]; TA98, +S9 mix, 185 µg/plate
  Number of revertant colonies: 16
[5]; TA98, +S9 mix, 556 µg/plate
  Number of revertant colonies: 15
[5]; TA98, +S9 mix, 1667 µg/plate
  Number of revertant colonies: 13
[5]; TA98, +S9 mix, 5000 µg/plate
  Number of revertant colonies: 13
[5]; TA98, -S9 mix, 2.3 µg/plate
  Number of revertant colonies: 14
[5]; TA98, -S9 mix, 6.9 µg/plate
  Number of revertant colonies: 16
[5]; TA98, -S9 mix, 21 µg/plate
  Number of revertant colonies: 14
[5]; TA98, -S9 mix, 62 µg/plate
  Number of revertant colonies: 21
[5]; TA98, -S9 mix, 185 µg/plate
  Number of revertant colonies: 9
[5]; TA98, -S9 mix, 556 µg/plate
  Number of revertant colonies: 0
[5]; TA98, -S9 mix, 1667 µg/plate
  Number of revertant colonies: 0
[5]; TA98, -S9 mix, 5000 µg/plate
  Number of revertant colonies: 0

## Nc1cc(-c2cc(F)cc(OC(F)(F)F)c2)n(-c2cncc(C(F)(F)F)c2)n1 [Metabolite 5]
[1]; TA1535, +S9 mix, 62 µg/plate
  Number of revertant colonies: 10
[1]; TA1535, -S9 mix, 5000 µg/plate
  Number of revertant colonies: 4
[2]
  potential to induce reverse mutations: did not show potential to induce reverse mutations
[3]; TA1537, +S9 mix, 6.9 µg/plate
  Number of revertant colonies: 13
[3]; TA1537, +S9 mix, 21 µg/plate
  Number of revertant colonies: 11
[3]; TA1537, +S9 mix, 62 µg/plate
  Number of revertant colonies: 12
[3]; TA1537, +S9 mix, 185 µg/plate
  Number of revertant colonies: 12
[3]; TA1537, +S9 mix, 556 µg/plate
  Number of revertant colonies: 8
[3]; TA1537, +S9 mix, 1667 µg/plate
  Number of revertant colonies: 3
[3]; TA1537, +S9 mix, 5000 µg/plate
  Number of revertant colonies: 1
[3]; TA1537, -S9 mix, 6.9 µg/plate
  Number of revertant colonies: 8
[3]; TA1537, -S9 mix, 21 µg/plate
  Number of revertant colonies: 7
[3]; TA1537, -S9 mix, 62 µg/plate
  Number of revertant colonies: 8
[3]; TA1537, -S9 mix, 185 µg/plate
  Number of revertant colonies: 7
[3]; TA1537, -S9 mix, 556 µg/plate
  Number of revertant colonies: 2
[3]; TA1537, -S9 mix, 1667 µg/plate
  Number of revertant colonies: 3
[3]; TA1537, -S9 mix, 5000 µg/plate
  Number of revertant colonies: 2
[4]; TA100, +S9 mix, 6.9 µg/plate
  Number of revertant colonies: 134
[4]; TA100, +S9 mix, 21 µg/plate
  Number of revertant colonies: 123
[4]; TA100, +S9 mix, 62 µg/plate
  Number of revertant colonies: 108
[4]; TA100, +S9 mix, 185 µg/plate
  Number of revertant colonies: 103
[4]; TA100, +S9 mix, 556 µg/plate
  Number of revertant colonies: 99
[4]; TA100, +S9 mix, 1667 µg/plate
  Number of revertant colonies: 67
[4]; TA100, +S9 mix, 5000 µg/plate
  Number of revertant colonies: 43
[4]; TA100, -S9 mix, 6.9 µg/plate
  Number of revertant colonies: 88
[4]; TA100, -S9 mix, 21 µg/plate
  Number of revertant colonies: 91
[4]; TA100, -S9 mix, 62 µg/plate
  Number of revertant colonies: 93
[4]; TA100, -S9 mix, 185 µg/plate
  Number of revertant colonies: 92
[4]; TA100, -S9 mix, 556 µg/plate
  Number of revertant colonies: 59
[4]; TA100, -S9 mix, 1667 µg/plate
  Number of revertant colonies: 29
[4]; TA100, -S9 mix, 5000 µg/plate
  Number of revertant colonies: 12
Escherichia coli WP2uvrA; +S9 mix, 6.9 µg/plate
  Number of revertant colonies: 22
Escherichia coli WP2uvrA; +S9 mix, 21 µg/plate
  Number of revertant colonies: 22
Escherichia coli WP2uvrA; +S9 mix, 62 µg/plate
  Number of revertant colonies: 21
Escherichia coli WP2uvrA; +S9 mix, 185 µg/plate
  Number of revertant colonies: 21
Escherichia coli WP2uvrA; +S9 mix, 556 µg/plate
  Number of revertant colonies: 18
Escherichia coli WP2uvrA; +S9 mix, 1667 µg/plate
  Number of revertant colonies: 21
Escherichia coli WP2uvrA; +S9 mix, 5000 µg/plate
  Number of revertant colonies: 19
Escherichia coli WP2uvrA; -S9 mix, 6.9 µg/plate
  Number of revertant colonies: 23
Escherichia coli WP2uvrA; -S9 mix, 21 µg/plate
  Number of revertant colonies: 15
Escherichia coli WP2uvrA; -S9 mix, 62 µg/plate
  Number of revertant colonies: 23
Escherichia coli WP2uvrA; -S9 mix, 185 µg/plate
  Number of revertant colonies: 20
Escherichia coli WP2uvrA; -S9 mix, 556 µg/plate
  Number of revertant colonies: 22
Escherichia coli WP2uvrA; -S9 mix, 1667 µg/plate
  Number of revertant colonies: 19
Escherichia coli WP2uvrA; -S9 mix, 5000 µg/plate
  Number of revertant colonies: 14
[5]; TA98, +S9 mix, 6.9 µg/plate
  Number of revertant colonies: 36
[5]; TA98, +S9 mix, 21 µg/plate
  Number of revertant colonies: 38
[5]; TA98, +S9 mix, 62 µg/plate
  Number of revertant colonies: 38
[5]; TA98, +S9 mix, 185 µg/plate
  Number of revertant colonies: 33
[5]; TA98, +S9 mix, 556 µg/plate
  Number of revertant colonies: 27
[5]; TA98, +S9 mix, 1667 µg/plate
  Number of revertant colonies: 25
[5]; TA98, +S9 mix, 5000 µg/plate
  Number of revertant colonies: 17
[5]; TA98, -S9 mix, 6.9 µg/plate
  Number of revertant colonies: 29
[5]; TA98, -S9 mix, 21 µg/plate
  Number of revertant colonies: 28
[5]; TA98, -S9 mix, 62 µg/plate
  Number of revertant colonies: 29
[5]; TA98, -S9 mix, 185 µg/plate
  Number of revertant colonies: 26
[5]; TA98, -S9 mix, 556 µg/plate
  Number of revertant colonies: 24
[5]; TA98, -S9 mix, 1667 µg/plate
  Number of revertant colonies: 18
[5]; TA98, -S9 mix, 5000 µg/plate
  Number of revertant colonies: 14

— patent US20230210831A1, “CHRONIC KIDNEY DISEASE TREATMENT OR PREVENTION METHOD” (Japan Tobacco Inc., priority 2019, published 2023)
